For data set [1], the target named is T1, Carnitine O-palmitoyltransferase 1, liver isoform (Rattus norvegicus, UniProt P32198).
T1 sequence (P32198 whole entry): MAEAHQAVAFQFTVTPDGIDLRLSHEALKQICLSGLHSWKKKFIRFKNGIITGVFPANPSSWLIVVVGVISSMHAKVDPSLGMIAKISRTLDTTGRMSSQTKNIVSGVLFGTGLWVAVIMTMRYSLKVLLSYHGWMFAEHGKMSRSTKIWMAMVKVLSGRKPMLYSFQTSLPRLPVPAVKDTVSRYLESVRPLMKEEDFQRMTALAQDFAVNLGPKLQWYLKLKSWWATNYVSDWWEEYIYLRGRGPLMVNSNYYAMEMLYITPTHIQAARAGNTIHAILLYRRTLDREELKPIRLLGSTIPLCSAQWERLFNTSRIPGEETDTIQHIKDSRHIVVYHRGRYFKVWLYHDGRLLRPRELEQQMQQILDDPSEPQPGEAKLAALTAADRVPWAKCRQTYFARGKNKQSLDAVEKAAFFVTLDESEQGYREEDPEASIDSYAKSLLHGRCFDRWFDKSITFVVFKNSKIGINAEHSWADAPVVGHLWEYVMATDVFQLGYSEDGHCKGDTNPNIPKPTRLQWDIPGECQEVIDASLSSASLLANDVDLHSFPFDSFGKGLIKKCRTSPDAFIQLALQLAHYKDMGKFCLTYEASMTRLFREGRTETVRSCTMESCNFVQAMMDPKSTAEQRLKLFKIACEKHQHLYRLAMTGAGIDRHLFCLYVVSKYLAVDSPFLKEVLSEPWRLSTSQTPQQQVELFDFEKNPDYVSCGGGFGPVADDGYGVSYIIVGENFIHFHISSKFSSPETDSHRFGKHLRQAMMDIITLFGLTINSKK
Briefly: (§1) Compound was evaluated for its ability to inhibit carnitine palmitoyltransferase I activity in intact mitochondria from rat liver.

For data set [2], the target named is T2, Carnitine O-palmitoyltransferase 1, muscle isoform (Rattus norvegicus, UniProt Q63704).
T2 sequence (Q63704 whole entry): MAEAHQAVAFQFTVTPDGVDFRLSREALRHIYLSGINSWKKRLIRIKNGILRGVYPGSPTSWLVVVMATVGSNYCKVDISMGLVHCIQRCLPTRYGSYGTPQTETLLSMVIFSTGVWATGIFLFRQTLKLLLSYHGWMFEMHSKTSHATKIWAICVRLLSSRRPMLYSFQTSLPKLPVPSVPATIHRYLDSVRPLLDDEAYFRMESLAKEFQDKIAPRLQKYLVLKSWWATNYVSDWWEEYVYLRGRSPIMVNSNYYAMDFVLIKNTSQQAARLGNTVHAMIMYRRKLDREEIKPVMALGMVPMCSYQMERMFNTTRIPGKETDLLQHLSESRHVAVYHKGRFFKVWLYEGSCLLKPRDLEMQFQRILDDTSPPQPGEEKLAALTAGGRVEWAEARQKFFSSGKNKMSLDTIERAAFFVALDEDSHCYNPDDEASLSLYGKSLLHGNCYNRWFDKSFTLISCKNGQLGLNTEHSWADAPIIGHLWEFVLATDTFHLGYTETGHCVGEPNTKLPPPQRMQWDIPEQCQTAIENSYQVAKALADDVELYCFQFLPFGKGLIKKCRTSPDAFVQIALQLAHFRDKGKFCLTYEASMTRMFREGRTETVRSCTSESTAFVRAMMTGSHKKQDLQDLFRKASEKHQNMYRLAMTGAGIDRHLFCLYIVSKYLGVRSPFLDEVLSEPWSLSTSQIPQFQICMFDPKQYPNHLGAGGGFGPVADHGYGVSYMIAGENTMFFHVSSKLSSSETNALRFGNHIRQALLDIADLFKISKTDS
Briefly: (§2) Compound was evaluated for its ability to inhibit carnitine palmitoyltransferase I activity in intact mitochondria from rat heart.

Compound in data set [3]: CCCCCCCCCCCCCCC[C@@]1(O)C[N+](C)(C)C[C@@H](CC(=O)[O-])O1
The data set is described as §1.

Compound in data set [4]: CCCCCCCCCCCCCCC[C@@]1(O)C[N+](C)(C)C[C@@H](CC(=O)[O-])O1
Described as §2.

In general, Ki refers to the equilibrium dissociation constant of an inhibitor or competing ligand from its target. Consider `CCCCCCCCCCCCCCC[C@@]1(O)C[N+](C)(C)C[C@@H](CC(=O)[O-])O1` [HEMIACYLCARNITINIUM], for which the inhibition constant Ki in data set [1] came to 4.2 µM; in data set [2], 2.8 µM.

B1: Carnitine O-palmitoyltransferase 1, liver isoform (Rattus norvegicus), P32198 (protein)
chain: T1 sequence (P32198 whole entry)
In general, Km refers to the substrate concentration at which the rate is half of its maximum. For B1, the Michaelis-Menten constant (Km) in data set [3] came to 350 µM.

B2: Carnitine O-palmitoyltransferase 1, muscle isoform (Rattus norvegicus), Q63704 (protein)
chain: T2 sequence (Q63704 whole entry)
As for B2, the Michaelis constant (Km) in data set [4] stood at 500 µM.

(Values after ChEMBL document CHEMBL1127073, “(+)-Hemipalmitoylcarnitinium strongly inhibits carnitine palmitoyltransferase-I in intact mitochondria” (J Med Chem, 1993).)
